Source: patent US4687773A, “(+)-N-N-propylnorapomorphine and selective limbic activity” (priority 1985, dated 1987)
Like-named read-outs stand apart in the source and are kept apart here.

Key:
Dopamine Receptors [1] = format: binding, calf; conditions: ligand [3H]APO (0.5 nM)
Dopamine Receptors [2] = format: binding, calf; conditions: ligand [3H]ADTN (0.5 nM)
[3] = system: dopamine (DA) receptors in the basal ganglia (corpus striatum); assay: Stereotyped licking and gnawing behavior rating in the rat; format: in vivo
From the text: Stereotypy: The mean stereotyped licking and gnawing behavioral rating scheme developed by Tarsy and Baldessarini^8 was used. […]
Stereotypy scores were rated for one hour as described in […]

[4] = system: dopamine (DA) receptors in the limbic system and basal ganglia; assay: Total motor activity, electronic activity monitor (EAM); format: in vivo, rat
Method: (§1) Activity: Overall motor activity was measured by use of the self-recording Stoelting electronic activity monitor method described previously by Stewart, Campbell, Sperk, and Baldessarini^9. Total activity is obtained by setting monitor sensitivity so as to detect both locomotion and small movements (such as grooming, sniffing, and chewing) as would be prominent in stereotyped responses that tend to diminish locomotion and increase sniffing, licking, and chewing movements. Locomotor activity is detected selectively by setting monitor sensitivity to detect large, locomotor movements, and to minimize smaller movements already described.
(§2) All data presented in the Tables below are expressed as the mean results from 4-6 rats per condition, ±S.E.M. Stereotypy is expressed in rating units (maximum=3.0) and activity is expressed in arbitrary units of percent change, derived from EAM counts per unit time, relative to activity in control (saline) animals set at zero.
All the posttreatment doses of (+)APO were 3.0 mg/kg, s.c. The data
All posttreatment doses of (+)NPA were 3 mg/kg, s.c. The data are similar

[5] = system: dopamine (DA) receptors in the limbic system; assay: Locomotor activity (spontaneous or aroused by (-)APO / (-)NPA), electronic activity monitor; format: in vivo, rat
Method: as §1
Rats (mean N=6 per condition) were tested for locomotor activity for 60 min following a single dose of (-)APO (0.3 mg/kg, SC), or its vehicle ("placebo" condition). The S(+) isomers were administered in a range of doses from 0 or 0.1 to 30 mg/kg, SC immediately following injection of (-)APO or its vehicle. Data are presented in FIG. 2 as mean EAM activity counts per hour SEM. In that figure, the dashed line labeled "control" represents the mean activity of rats given vehicle only and no aporphine (SD values are indicated by parallel light lines above and below the control mean).
Test agents (11substituted-N--propylnoraporphine isomers were given at a
dose of 3 mg/kg, ip (in 2 ml/kg) just prior to (-)apomorphine (APO, at 0.
mg/kg, ip, in 1 ml/kg) to rats (N = 6) tested in an electronic activity

[6] = system: DA in the limbic system (nucleus accumbens septi); assay: Arousal (locomotor activity) induced by DA injected into nucleus accumbens septi; format: in vivo, rat; conditions: for activity counts (arousal induced by 16 μg DA in accumbens): 30 min, DA control 238 ± 38
Method: An experiment shown in Table 9 involves testing the effects of S(+) isomers of apomorphine (APO) and N-propylnorapomorphine (NPA) given systemically (intraperitoneally, ip), as well as S(+) methylenedioxy-N-propylnorapomorphine (MDO-NPA) given ip or orally (po, by orogastric intubation). […]. […] Activity was monitored for 30 min after injection of DA into the brain, which was done at 10 min after systemic dosing with an S(+)aporphine test compound.
Data are mean activity counts ± SEM (N = 6) for rats given DA into the
medial accumbens after pretreatment with an inhibitor of monoamine oxidas
(MA0), and monitored on EAM for 30 min (aporphine given 10 min before DA
systemicallyintraperitoneally [ip] or orally [po].

[7] = system: DA in the corpus striatum (basal ganglia); assay: Head posture (contralateral head deviation) after intrastriatal DA; format: in vivo, rat; conditions: intrastriatal DA 16 μg; aporphine 3 mg/kg systemic (route not given)
[8] = system: dopamine (DA) receptors in the limbic system; assay: Locomotor activity (spontaneous or aroused by (-)APO / (-)NPA), electronic activity monitor; format: in vivo, rat; remark: listed apart in the source
[9] = Catalepsy (latency to resume normal posture); format: in vivo, rat; conditions: s.c., maximum 18.0
Method: Catalepsy: This measure of muscle rigidity is assessed by having animals in abnormal body positions and timing their duration of maintaining these. This is done by placing rats on a wire grid placed at a 45° angle to the benchtop, or by placing their forelimbs on a raised horizontal metal bar, and timing the latency to resume a normal posture by stopwatch.
as §2

[10] = biological target: T1, Dopamine (DA) sensitive adenylate cyclase (Rattus norvegicus, UniProt P18901); assay: Stimulation of formation of cyclic AMP in rat striatal homogenate; format: biochemical
T1 construct: homogenates of rat corpus striatum; from tissue; host or cells: rat corpus striatum homogenate
From the text: assayed in homogenates of corpus striatum obtained from rat brain. The
method of assay of the activity of DAsensitive adenylate cyclase by the
rate of formation of cAMP above a basal (no agonist) level is described
under Experimental Section. The data are mean values of cAMP levels in […]

[11] = biological target: T2, rat liver catechol O-methyl-transferase (COMT) (Rattus norvegicus, UniProt P22734); assay: Isomeric substrate selectivity for rat liver COMT; format: biochemical
T2 construct: partially purified rat liver catechol O-methyl-transferase (COMT); from tissue; host or cells: rat liver, ammonium sulfate precipitation and dialysis
T2 sequence (P22734 1-221 isoform P22734-2): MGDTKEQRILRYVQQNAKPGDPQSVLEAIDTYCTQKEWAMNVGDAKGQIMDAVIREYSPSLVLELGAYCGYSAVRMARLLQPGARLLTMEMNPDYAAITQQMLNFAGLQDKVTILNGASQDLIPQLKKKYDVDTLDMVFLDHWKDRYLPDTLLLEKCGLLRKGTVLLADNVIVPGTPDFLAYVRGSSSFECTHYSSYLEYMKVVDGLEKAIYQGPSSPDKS

[12] = Table 4, (+)APO 3.0 mg/kg s.c. after (-)APO 0.3 mg/kg
[13] = Table 4, (+)APO 3.0 mg/kg s.c. after (-)APO 1.0 mg/kg
[14] = Table 4, (+)APO 3.0 mg/kg s.c. after (-)APO 3.0 mg/kg
[15] = Table 4, (+)APO 3.0 mg/kg s.c., (-)APO 0
[16] = Table 5, (-)NPA 0.3 mg/kg + saline
[17] = Table 5, (-)NPA 3.0 mg/kg + saline
[18] = 2.5 min, read-out: cAMP production, % of control

T1 sequence (P18901 whole entry): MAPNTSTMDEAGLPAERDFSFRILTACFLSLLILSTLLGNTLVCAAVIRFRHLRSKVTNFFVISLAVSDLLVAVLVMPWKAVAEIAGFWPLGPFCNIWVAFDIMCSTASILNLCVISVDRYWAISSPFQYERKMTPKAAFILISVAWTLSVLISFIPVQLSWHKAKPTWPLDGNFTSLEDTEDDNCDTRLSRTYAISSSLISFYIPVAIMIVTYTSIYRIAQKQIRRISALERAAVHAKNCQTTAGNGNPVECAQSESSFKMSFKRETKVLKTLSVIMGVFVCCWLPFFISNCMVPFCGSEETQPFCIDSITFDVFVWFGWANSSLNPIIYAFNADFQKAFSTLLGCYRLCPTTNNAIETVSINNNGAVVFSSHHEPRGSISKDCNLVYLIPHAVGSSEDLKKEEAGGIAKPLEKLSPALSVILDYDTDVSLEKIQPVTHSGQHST

SMILES: CCCN1CCc2cccc3c2C1Cc1ccc(O)c(O)c1-3 (racemic) [(±)-NPA, (RS)-N-n-Propylnorapomorphine]
- IC50 (Dopamine Receptors [1]): 5 nM
- IC50 (Dopamine Receptors [2]): 3.5 nM

SMILES: CN1CCc2cccc3c2[C@@H]1Cc1ccc(O)c(O)c1-3 [(+)APO, S(+) isomers of apomorphine (APO)]
- Stereotypy Score [3, 12]: 0.89 ± 0.36 rating units
- Stereotypy Score [3, 13]: 1.92 ± 0.21 rating units
- Stereotypy Score [3, 14]: 2.93 ± 0.32 rating units
- Stereotypy Score [3, 15]: 0.32 ± 0.62 rating units
- Total Activity [4, 12]: 36.2 ± 0.92 percent change
- Total Activity [4, 13]: 44.6 ± 0.75 percent change
- Total Activity [4, 14]: 62.0 ± 0.48 percent change
- Total Activity [4, 15]: -0.62 ± 0.33 percent change
- Locomotion [5, 12]: 36.2 ± 4.3 percent change
- Locomotion [5, 14]: 42.1 ± 6.3 percent change
- Locomotion [5, 15]: -0.84 ± 0.22 percent change
- ID50 to reduce the locomotor activating actions of (-)APO ([5]; s.c., (-)APO 0.3 mg/kg): 4 mg/kg
- ID50, spontaneous locomotor arousal ([5]; spontaneous activity): > 50 mg/kg
- activity counts (arousal induced by 16 μg DA in accumbens) ([6]; 0.3 mg/kg ip): 246 ± 41 activity counts
- activity counts (arousal induced by 16 μg DA in accumbens) ([6]; 1.0 mg/kg ip): 190 ± 37 activity counts
- activity counts (arousal induced by 16 μg DA in accumbens) ([6]; 3.0 mg/kg ip): 125 ± 19 activity counts
- ED50 ([6]; Rattus norvegicus, ip, DA 16 μg in accumbens, read-out: ID50 (the source's name)): 4 mg/kg
- ID50 ([6]; ip, DA 16 μg in accumbens): 3.6 mg/kg
- Contralateral Head Deviation, Percent of Total [7]: 57.2% of Total
- Contralateral Head Deviation, Time [7]: 412 ± 53 s
- Locomotion [8, 13]: 43.0 ± 5.2 percent change

SMILES: CCCN1CCc2cccc3c2[C@H]1Cc1ccc(O)c(O)c1-3 [(-)NPA, (R)-N-n-propylnorapomorphine]
- Stereotypy Score ([3]; Table 1, (-) isomer 3 mg/kg, s.c., ± saline, maximum 3.0): 2.9 ± 0.1 rating units
- Stereotypy Score ([3]; Table 3, 0.1 mg/kg, s.c., maximum 3.0): 1.1 ± 0.2 rating units
- Stereotypy Score ([3]; Table 3, 0.3 mg/kg, s.c., maximum 3.0): 2.0 ± 0.3 rating units
- Stereotypy Score ([3]; Table 3, 3.0 mg/kg, s.c., maximum 3.0): 2.9 ± 0.9 rating units
- Stereotypy Score ([3]; Table 3, 5.0 mg/kg, s.c., maximum 3.0): 3.0 ± 0.0 rating units
- Stereotypy Score [3, 16]: 2.0 ± 0.2 rating units
- Stereotypy Score [3, 17]: 2.8 ± 0.4 rating units
- Total Activity ([4]; Table 3, 0.1 mg/kg, s.c.): 2.0 ± 1.8 percent change vs. placebo con
- Total Activity ([4]; Table 3, 0.3 mg/kg, s.c.): 2.1 ± 3.2 percent change vs. placebo con
- Total Activity ([4]; Table 3, 3.0 mg/kg, s.c.): 231.4 ± 37 percent change vs. placebo con
- Total Activity [4, 16]: 22.1 ± 3.7 percent change
- Total Activity [4, 17]: 231.4 ± 37 percent change
- Locomotion [5, 16]: 48.1 ± 9.2 percent change
- Catalepsy score ([9]; 0.1 mg/kg): 0.5 ± 0.2
- Catalepsy score ([9]; 3.0 mg/kg): 0.8 ± 0.3
- cAMP production ([10]; 1 μM): 3.71 ± 0.31 picomoles per 2.5 min
- cAMP production ([10]; 5 μM): 4.57 ± 0.13 picomoles per 2.5 min
- cAMP production ([10]; 10 μM): 5.34 ± 0.27 picomoles per 2.5 min
- cAMP production ([10]; 50 μM): 5.71 ± 0.24 picomoles per 2.5 min
- cAMP production ([10]; 100 μM): 5.56 ± 0.24 picomoles per 2.5 min
- cAMP formation, % of control at 1 µM [10, 18]: 150%
- cAMP formation, % of control at 5 µM [10, 18]: 184%
- cAMP formation, % of control at 10 µM [10, 18]: 215%
- cAMP formation, % of control at 50 µM [10, 18]: 230%
- cAMP formation, % of control at 100 µM [10, 18]: 224%
- IC50 (Dopamine Receptors [1]): 2.5 nM
- IC50 (Dopamine Receptors [2]): 2 nM
- Vmax (range of two experiments) ([11]; footnote range): 8.9-11.1 (pmol/assay)/h
- Vmax ([11]; mean, substrate of rat liver COMT): 10.0 (pmol/assay)/h
- Locomotion [8, 17]: 10.2 ± 6.3 percent change
